In US8367712B2, “Substituted amide beta secretase inhibitors” (Merck, Sharp & Dohme, Corp., priority 2004, dated 2013):

Biological target: T1, sproBACE1 (soluble form of human BACE1) (Homo sapiens, UniProt P56817)
T1 construct: sBACE1, corresponding to amino acids 1-454; made in house; host or cells: Sf9 insect cells (baculovirus), secreted into the medium
Assay: Peptide Hydrolysis Assay (HTRF, EuK-biotin labeled APPsw substrate)
Type: biochemical
Conditions: 7 nM sproBACE1, 25 nM EuK-biotin APPsw substrate, pH 5.0, 3 hr at 30° C.
Description: A predicted soluble form of human BACE1 (sBACE1, corresponding to amino acids 1-454) was generated from the full length BACE1 cDNA (full length human BACE1 cDNA in pcDNA4/mycHisA construct; University of Toronto) by PCR using the advantage-GC cDNA PCR kit (Clontech, Palo Alto, Calif.). A HindIII/PmeI fragment from pcDNA4-sBACE1myc/His was blunt ended using Klenow and subcloned into the StuI site of pFASTBACI(A) (Invitrogen). A sBACE1mycHis recombinant bacmid was generated by transposition in DH10Bac cells(GIBCO/BRL). Subsequently, the sBACE1 mycHis bacmid construct was transfected into sf9 cells using CellFectin (Invitrogen, San Diego, Calif.) in order to generate recombinant baculovirus. […]
Proteins, were eluted from the Q-sepharose column with Buffer B (20 mM HEPES, pH 8.0, 500 mM NaCl). […] Peak protein fractions as determined by the Bradford Assay (Biorad, CA) were concentrated using a Centricon 30 concentrator (Millipore). sBACE1 purity was estimated to be ˜90% as assessed by SDS-PAGE and Commassie Blue staining. […]
IC50 determinations for inhibitors, (I), were determined by measuring the percent change of the relative fluorescence at 665 nm divided by the relative fluorescence at 620 nm, (665/620 ratio), in the presence of varying concentrations of I and a fixed concentration of enzyme and substrate. […]

T1 sequence (P56817 22-454): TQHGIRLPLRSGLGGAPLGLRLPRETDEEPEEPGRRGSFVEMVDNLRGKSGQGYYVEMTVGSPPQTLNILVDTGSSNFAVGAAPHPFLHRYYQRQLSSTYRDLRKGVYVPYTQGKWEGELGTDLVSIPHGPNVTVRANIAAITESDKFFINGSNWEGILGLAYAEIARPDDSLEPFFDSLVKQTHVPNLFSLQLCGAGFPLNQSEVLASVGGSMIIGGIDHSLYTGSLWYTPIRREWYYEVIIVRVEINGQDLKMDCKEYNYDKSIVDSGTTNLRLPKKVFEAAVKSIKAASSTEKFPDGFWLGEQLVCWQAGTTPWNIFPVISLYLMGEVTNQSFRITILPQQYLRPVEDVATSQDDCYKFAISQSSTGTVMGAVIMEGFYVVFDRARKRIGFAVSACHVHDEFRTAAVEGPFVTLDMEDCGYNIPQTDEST

Which IC50 does the source give for `CC(=O)N[C@@H](Cc1cc(F)cc(OCc2ccncc2)c1)[C@H](O)[C@@H]1NCCN(Cc2ccccc2)C1=O` here?
The IC50 was 186 nM.
